The target of experiment [1] is T1, GABA-B receptor (Homo sapiens) (UniProt Q9UBS5+O75899). Briefly: Agonist activity at human GABAB expressed in HEK293T cells co-transfected with human CaV2.2-beta3 channel assessed as inhibition of CaV2.2-mediated Ba2+ peak-current amplitude at 100 nM at -80 to 10 mV holding potential after 72 hrs by whole cell patch clamp assay relative to control. In kind it is cell-based. As to conditions: filed as agonist.

Experiment [2] addresses T2, Neuronal acetylcholine receptor; alpha3/beta2 (Homo sapiens) (UniProt P17787+P32297). As to the kind of experiment: Antagonist activity at human alpha3beta2 nAChR expressed in Xenopus laevis oocytes assessed as inhibition of Ach-induced response at 30 uM incubated for 5 mins by two electrode voltage-clamp assay relative to control. In kind it is cell-based. As to conditions: Oocyte.

The target of experiment [3] is T1, GABA-B receptor (Homo sapiens). As to the kind of experiment: Agonist activity at human GABAB expressed in HEK293T cells co-transfected with human CaV2.2-alpha1B channel assessed as inhibition of CaV2.2-mediated Ba2+ peak-current amplitude at 100 nM at -80 to 10 mV holding potential after 72 hrs by whole cell patch clamp assay relative to control. It is filed as cell-based. As to conditions: filed as agonist. Background: In patch-clamp work, channel activity is measured electrically.

Experiment [4] shares this target. Briefly: Agonist activity at human GABAB expressed in HEK293T cells co-transfected with human CaV2.2-alpha2delta1 channel assessed as inhibition of CaV2.2-mediated Ba2+ peak-current amplitude at 100 nM at -80 to 10 mV holding potential after 72 hrs by whole cell patch clamp assay relative to control. As to conditions: filed as agonist. It is filed as cell-based.

The target in experiment [5] is Neuronal acetylcholine receptor subunit alpha-7 (Homo sapiens) (UniProt P36544). Briefly: Antagonist activity at human alpha7 nAChR expressed in Xenopus laevis oocytes assessed as inhibition of Ach-induced response incubated for 5 mins by two electrode voltage-clamp assay. It is filed as cell-based. As to conditions: Oocyte, dose 1-30 µM. (In two-electrode clamp one electrode senses voltage and the other passes current.)

Experiment [6] has as its target Neuronal acetylcholine receptor; alpha3/beta4 (Homo sapiens) (UniProt P30926+P32297). As to the kind of experiment: Antagonist activity at human alpha3beta4 nAChR expressed in Xenopus laevis oocytes assessed as inhibition of Ach-induced response at 1 to 30 uM incubated for 5 mins by two electrode voltage-clamp assay. As to conditions: Oocyte, filed as antagonist, dose 1-30 µM. It is filed as cell-based.

Experiment [7] concerns the target Nicotinic acetylcholine receptor alpha6/alpha3/beta4 (Homo sapiens) (UniProt P30926+P32297+Q15825). As to the kind of experiment: Antagonist activity at human alpha6/alpha3beta4 nAChR expressed in Xenopus laevis oocytes assessed as inhibition of Ach-induced response at 1 to 30 uM incubated for 5 mins by two electrode voltage-clamp assay. It is filed as cell-based. As to conditions: Oocyte, filed as antagonist, dose 1-30 µM.

In a further experiment the target is GABA-B receptor (Homo sapiens, UniProt O75899+Q9UBS5). Briefly: Agonist activity at human GABAB expressed in HEK293T cells co-transfected with human CaV2.2 channel assessed as inhibition of CaV2.2-mediated Ba2+ peak-current amplitude at -80 to 10 mV holding potential after 72 hrs by whole cell patch clamp assay. In kind it is cell-based.
Experiment [8] addresses T2, Neuronal acetylcholine receptor; alpha3/beta2 (Homo sapiens). Briefly: Antagonist activity at human alpha3beta2 nAChR expressed in Xenopus laevis oocytes assessed as inhibition of Ach-induced response incubated for 5 mins by two electrode voltage-clamp assay. As to conditions: Oocyte, filed as antagonist, dose 1-30 µM. It is filed as cell-based.
Experiment [9] deals with T3, Neuronal acetylcholine receptor; alpha9/alpha10 (Homo sapiens) (UniProt Q9UGM1+Q9GZZ6). As to the kind of experiment: Antagonist activity at human alpha9alpha10 nAChR expressed in Xenopus laevis oocytes assessed as inhibition of Ach-induced response incubated for 5 mins by two electrode voltage-clamp assay. As to conditions: Oocyte, filed as antagonist, dose 1-30 µM. In kind it is cell-based.

The test system of experiment [10] is Rattus norvegicus. Briefly: Antiallodynic activity in Sprague-Dawley rat model of neuropathic mechanical allodynia assessed as increase in paw withdrawal threshold at 0.1 mg/kg, IM measured at 2 hr post last dose by von Frey test. In kind it is functional.
For experiment [11], the system named is Rattus norvegicus. Briefly: Antiallodynic activity in Sprague-Dawley rat model of neuropathic mechanical allodynia assessed as increase in paw withdrawal threshold at 0.1 mg/kg, IM measured at 4 hr post last dose by von Frey test. It is filed as functional.
Experiment [12] addresses T3, Neuronal acetylcholine receptor; alpha9/alpha10 (Homo sapiens). As to the kind of experiment: Antagonist activity at human alpha9/alpha10 nAChR expressed in Xenopus laevis oocytes assessed as inhibition of Ach-induced response at 30 uM incubated for 5 mins by two electrode voltage-clamp assay. It is filed as cell-based. As to conditions: Oocyte.
The subject of experiment [13] is Rattus norvegicus. Briefly: Antiallodynic activity in Sprague-Dawley rat model of neuropathic mechanical allodynia assessed as increase in paw withdrawal threshold at 0.1 mg/kg, IM measured at 24 hrs post last dose by von Frey test. It is filed as functional.
Experiment [14] relates to Rattus norvegicus. Briefly: Antiallodynic activity in Sprague-Dawley rat model of neuropathic mechanical allodynia assessed as increase in paw withdrawal threshold at 0.1 mg/kg, IM measured at 6 hr post last dose by von Frey test. In kind it is functional.
Experiment [15] has as its system Rattus norvegicus. As to the kind of experiment: Antiallodynic activity in Sprague-Dawley rat model of neuropathic mechanical allodynia assessed as increase in paw withdrawal threshold administered intramuscularly measured at 1 to 24 hrs post last dose by von Frey test. In kind it is functional, organism-based. As to conditions: dose 0.03-0.1 mg/kg, time 1-24 hrs.

Experiment [16] has as its system Rattus norvegicus. Briefly: Antiallodynic activity in Sprague-Dawley rat model of neuropathic mechanical allodynia assessed as increase in paw withdrawal threshold at 0.1 mg/kg, IM measured at 1 hr post last dose by von Frey test. In kind it is functional.

Molecules are shown by their SMILES. The source made the active and inactive calls. Bounds are passed on as bounds.

A word on the inhibition: it is the drop in the measured response relative to a control, in per cent. By IC50 is commonly meant the point on the concentration scale where inhibition reaches its midpoint.

Chain of GABA-B receptor (Q9UBS5 whole entry): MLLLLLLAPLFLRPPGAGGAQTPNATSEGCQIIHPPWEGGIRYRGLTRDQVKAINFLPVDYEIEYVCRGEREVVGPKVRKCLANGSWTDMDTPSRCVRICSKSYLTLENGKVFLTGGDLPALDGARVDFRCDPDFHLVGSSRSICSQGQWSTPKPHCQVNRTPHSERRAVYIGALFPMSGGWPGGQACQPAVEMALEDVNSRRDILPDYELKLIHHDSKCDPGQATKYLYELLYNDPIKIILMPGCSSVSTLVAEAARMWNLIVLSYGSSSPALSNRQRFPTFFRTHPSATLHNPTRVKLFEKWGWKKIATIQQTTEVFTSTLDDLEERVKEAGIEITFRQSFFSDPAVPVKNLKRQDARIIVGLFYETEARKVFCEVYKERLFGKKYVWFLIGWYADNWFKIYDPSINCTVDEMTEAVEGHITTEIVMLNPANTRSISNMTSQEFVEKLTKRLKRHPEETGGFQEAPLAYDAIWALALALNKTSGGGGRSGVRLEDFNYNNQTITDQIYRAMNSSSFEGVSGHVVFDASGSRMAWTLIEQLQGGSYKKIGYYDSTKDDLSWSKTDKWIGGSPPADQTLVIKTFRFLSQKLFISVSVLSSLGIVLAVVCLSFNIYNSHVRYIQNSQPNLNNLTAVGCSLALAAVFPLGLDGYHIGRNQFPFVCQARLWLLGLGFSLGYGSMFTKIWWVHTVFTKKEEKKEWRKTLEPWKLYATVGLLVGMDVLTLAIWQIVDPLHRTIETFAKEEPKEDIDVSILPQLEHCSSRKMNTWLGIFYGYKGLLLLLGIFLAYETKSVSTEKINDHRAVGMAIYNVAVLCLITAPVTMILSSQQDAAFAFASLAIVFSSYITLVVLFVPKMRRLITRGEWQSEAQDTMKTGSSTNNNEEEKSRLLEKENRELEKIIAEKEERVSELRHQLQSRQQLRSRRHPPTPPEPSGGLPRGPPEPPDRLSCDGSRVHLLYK
Chain of GABA-B receptor (O75899 whole entry): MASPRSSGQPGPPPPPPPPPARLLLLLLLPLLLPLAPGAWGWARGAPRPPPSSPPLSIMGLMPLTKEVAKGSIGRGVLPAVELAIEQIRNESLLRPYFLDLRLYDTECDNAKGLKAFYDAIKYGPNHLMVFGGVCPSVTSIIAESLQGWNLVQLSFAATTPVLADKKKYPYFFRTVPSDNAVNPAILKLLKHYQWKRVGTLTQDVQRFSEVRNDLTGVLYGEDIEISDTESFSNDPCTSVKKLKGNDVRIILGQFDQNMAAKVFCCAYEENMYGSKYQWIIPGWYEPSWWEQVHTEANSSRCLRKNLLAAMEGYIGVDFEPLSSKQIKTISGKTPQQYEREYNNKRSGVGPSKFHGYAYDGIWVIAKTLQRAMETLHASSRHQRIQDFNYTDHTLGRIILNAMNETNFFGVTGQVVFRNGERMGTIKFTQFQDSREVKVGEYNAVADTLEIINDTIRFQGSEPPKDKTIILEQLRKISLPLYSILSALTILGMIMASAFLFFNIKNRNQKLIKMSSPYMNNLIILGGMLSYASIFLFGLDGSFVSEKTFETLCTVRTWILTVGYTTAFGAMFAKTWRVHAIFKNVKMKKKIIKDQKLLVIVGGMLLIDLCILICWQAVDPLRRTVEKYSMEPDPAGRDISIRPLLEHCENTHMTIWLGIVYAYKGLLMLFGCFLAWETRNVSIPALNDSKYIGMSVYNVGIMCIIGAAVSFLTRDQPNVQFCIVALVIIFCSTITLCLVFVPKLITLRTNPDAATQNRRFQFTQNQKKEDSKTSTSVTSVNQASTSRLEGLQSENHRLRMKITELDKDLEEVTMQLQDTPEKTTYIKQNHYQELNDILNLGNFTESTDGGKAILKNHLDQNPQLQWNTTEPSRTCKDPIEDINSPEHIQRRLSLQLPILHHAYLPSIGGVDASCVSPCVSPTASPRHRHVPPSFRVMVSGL
Chain of Neuronal acetylcholine receptor subunit alpha-7 (Homo sapiens) (P36544 whole entry): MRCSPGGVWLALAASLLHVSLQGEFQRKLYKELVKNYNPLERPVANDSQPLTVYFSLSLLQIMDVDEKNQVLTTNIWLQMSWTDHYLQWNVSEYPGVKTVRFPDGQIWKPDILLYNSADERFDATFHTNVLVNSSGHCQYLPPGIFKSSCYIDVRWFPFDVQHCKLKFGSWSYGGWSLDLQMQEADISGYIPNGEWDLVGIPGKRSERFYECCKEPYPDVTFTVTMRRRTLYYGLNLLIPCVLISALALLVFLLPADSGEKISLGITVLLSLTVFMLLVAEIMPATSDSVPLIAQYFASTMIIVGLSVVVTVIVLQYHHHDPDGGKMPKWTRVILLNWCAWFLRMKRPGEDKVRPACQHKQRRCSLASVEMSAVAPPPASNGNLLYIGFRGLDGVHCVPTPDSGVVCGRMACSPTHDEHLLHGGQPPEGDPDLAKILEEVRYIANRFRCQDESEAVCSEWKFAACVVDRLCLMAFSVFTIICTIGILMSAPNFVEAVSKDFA

As for `CC[C@H](C)[C@@H]1NC(=O)[C@H](CCC(=O)O)NC(=O)[C@@H]2CCCN2C(=O)[C@H](Cc2cnc[nH]2)NC(=O)[C@H](CC(=O)O)NC(=O)[C@H](Cc2ccc(O)cc2)NC(=O)[C@H](CC(N)=O)NC(=O)[C@@H]2CCCC[C@@H](NC(=O)CN)C(=O)N[C@H](CSSC[C@@H](C(N)=O)NC1=O)C(=O)N[C@@H](CO)C(=O)N[C@@H](CC(=O)O)C(=O)N1CCC[C@H]1C(=O)N[C@@H](CCCNC(=N)N)C(=O)N2`, the inhibition is 0.06% in experiment [1], more than 90% in [2] (filed as antagonist), 0.06% in experiment [3] and 0.06% in [4].

In the case of `CC[C@H](C)[C@@H]1NC(=O)[C@H](CCC(=O)O)NC(=O)[C@@H]2CCCN2C(=O)[C@H](Cc2cnc[nH]2)NC(=O)[C@H](CC(=O)O)NC(=O)[C@H](Cc2ccc(O)cc2)NC(=O)[C@H](CC(N)=O)NC(=O)[C@@H]2CSSC[C@H](NC(=O)[C@@H](NC(=O)CN)CSSC[C@@H](C(N)=O)NC1=O)C(=O)N[C@@H](CO)C(=O)N[C@@H](CC(=O)O)C(=O)N1CCC[C@H]1C(=O)N[C@@H](CCCNC(=N)N)C(=O)N2`, the inhibition entry was “Dose-Dependent Effect” in experiment [5] (filed as antagonist); 25% in [1]; 25% in experiment [3]; 25% in [4]; “Dose-Dependent Effect” in experiment [8]; “Dose-Dependent Effect” in [9]. Moreover, the inhibition entry in [6] and in [7] was “Active” throughout. On GABA-B receptor, the IC50 was found to be 21 nM.

On to `CC[C@H](C)[C@@H]1NC(=O)[C@H](CCC(=O)O)NC(=O)[C@@H]2CCCN2C(=O)[C@H](Cc2cnc[nH]2)NC(=O)[C@H](CC(=O)O)NC(=O)[C@H](Cc2ccc(O)cc2)NC(=O)[C@H](CC(N)=O)NC(=O)[C@@H]2CC#CC[C@@H](NC(=O)CN)C(=O)N[C@H](CSSC[C@@H](C(N)=O)NC1=O)C(=O)N[C@@H](CO)C(=O)N[C@@H](CC(=O)O)C(=O)N1CCC[C@H]1C(=O)N[C@@H](CCCNC(=N)N)C(=O)N2`, for which the inhibition result in [5], in [2] and in experiment [12] was “inactive” each time. Further, the Activity in the experiment with Rattus norvegicus [10] is 5.5 g; in the experiment on Rattus norvegicus [11] it was 5.5 g; in the experiment with Rattus norvegicus [13], 3.88 g; in the experiment on Rattus norvegicus [14], 4.88 g; in the experiment on Rattus norvegicus [15], “Dose-Dependent Effect”; with Rattus norvegicus [16], 5.38 g. Further, the inhibition in experiment [1], in experiment [3] and in experiment [4] was 26% in each case. The IC50 on GABA-B receptor came out at 13 nM.

The values above are taken from ChEMBL document CHEMBL4819053, “Alkyne-Bridged α-Conotoxin Vc1.1 Potently Reverses Mechanical Allodynia in Neuropathic Pain Models” (J Med Chem, 2021).
